Test results from patent publication US20240293337A1, “USE OF DOXERCALCIFEROL TO TREAT AND/OR PREVENT UTERINE FIBROIDS OR POLYCYSTIC OVARY SYNDROME” (priority 2023, published 2024).

Key:
[1] = Serum chemistry in PCOS mice; assay type: in vivo, C57BL/6 mice; conditions: after five weeks of treatment, most of the serum levels
[2] = test system: letrozole induced polycystic ovary syndrome (PCOS) mouse models; experiment: Glucose tolerance test in PCOS mice; assay type: in vivo, C57BL/6 mice; conditions: 300 ng/kg i.p. 3 times per week, 120 minutes after IP glucose injection
Protocol: At 3.5 weeks of age, mice (n=11/group) are subcutaneously implanted with a placebo or 5 mg letrozole (LTZ) pellet (Innovative Research of America, Sarasota, FL, USA), which provides a constant release of LTZ (50 μg/day). Body weight is monitored weekly before and post-implantation. Body weight and insulin resistance (measured by glucose tolerance test, GTT) are used to monitor development of PCOS characteristics.
(§1) Five weeks after placebo or LTZ pellet implantation, mice undergo intraperitoneal injection of doxercalciferol (300 ng/kg) or saline 3 times per week for 6 weeks. Six weeks after doxercalciferol treatment, the mice are anesthetized and ovary, uterus, gonadal white fat, kidney, and liver tissue are collected. Each of these tissues are fixed in 4% paraformaldehyde for further histological analysis.
Glucose tolerance testing is performed on healthy, PCOS, and treated mice 3 weeks after doxercalciferol treatment. Mice are fasting for 16 h (5 p.m. to 9 a.m.), with free access to drinking water, after which they receive an intra-peritoneal (i.p.) injection of D-glucose (2.0 g/kg body weight). Blood glucose level is measured at 0, 15, 30, 60, 90, and 120 minutes following glucose injection using a Bayer glucose monitor (Roche Diagnostics Corp, IN, USA).

[3] = test system: patient derived xenograft (PDX) mouse model of uterine fibroids (UF); experiment: Differentially expressed gene (DEG) analysis by RNA sequencing in PDX UFs; assay type: in vivo, NOD/SCID mice; conditions: UFs treated with doxercalciferol compared to control
Protocol: After xenograft mice undergo intraperitoneal injection of doxercalciferol (300 ng/kg, 3 times per week) or saline for 6 weeks. Body weight is monitored weekly during doxercalciferol treatment. Six weeks after doxercalciferol treatment insulin resistance is assessed using GTT and then mice are anesthetized and blood is collected to measure liver enzyme and AMH levels, ovary tissue is removed for histological analysis, total RNA is extracted for sequencing, and tumor size is measured with a digital caliper.
Total RNA is extracted from PDX mice after doxercalciferol treatment. EdgeR is used to identify DEGs with p-values of (p)<0.01). GO and KEGG enrichment analysis are performed to determine the implication of the DEGs at the biologically functional level.

SW872 cells [4] = experiment: SW872 immortalized adipocyte model, cell morphology and cell number after 24 h treatment; assay type: cell-based, human; conditions: 100 nM
Protocol: Human liposarcoma SW872 are used as an in vitro cell culture model of adipocytes to assess adipocyte proliferation. SW872 cells are purchased from (ATCC). These cells are isolated from a surgical specimen of a […] removed from a donor. The cells are cultured per the recommended guidelines. The cells are subcultured at a ratio of 1:4, resulting in a cell density of approximately 1×10^6 in T75 flasks. SW872 cells are subcultured in T75 flasks for 24 hours. Cells are then treated for 24 hours with serum free basal media as a control or doxercalciferol at 1 nM, 10 nM, or 100 nM diluted in basal media (serum-free). After the incubation period, cells are imaged and analyzed for morphology and cell count. Cells are then collected for analysis of adipogenesis-related gene expression and cell culture media are collected for analysis of obesity related cytokines.

[5] = test system: letrozole induced polycystic ovary syndrome (PCOS) mouse models; experiment: Breeding experiments in PCOS mice; assay type: in vivo, C57BL/6 mice
Protocol: as §1
After doxercalciferol treatment, 6 mice per group from the PCOS experiments are randomly selected for the breeding experiment. One male C57BL/6 breeder mouse is used for every two female mice. The male and female mice are caged together for 10 days. Mating is determined by the presence of sperm plug in the vagina. The pregnancy rate, required time for pregnancy, average number of pups, total live and dead pups, and mouse pup weight and growth rate at birth and days 5 and 10 postpartum are measured.

SW872 cells [6] = experiment: Obesity related cytokine antibody array of SW872 secretomes; assay type: cell-based, human; conditions: SW872 secretome, 10 nM, 24 hours
Protocol: SW872 cells are subcultured in T75 flasks for 24 hours. Cells are then treated for 24 hours with serum free basal media as a control or doxercalciferol at 1 nM, 10 nM, or 100 nM diluted in basal media (serum-free). After the incubation period, cells are imaged and analyzed for morphology and cell count. Cells are then collected for analysis of adipogenesis-related gene expression and cell culture media are collected for analysis of obesity related cytokines. Cell culture media are collected from SW872 cells after 24 hours of 10 nM doxercalciferol treatment. The media is analyzed for obesity related cytokines using a membrane-based antibody array (Ray Biotech, GA, USA) per the manufacturer's protocol, and then quantified using a multimode microplate reader system, Varioskan LUX Multimode Microplate Reader (Thermo Fisher).

[7] = Body weight in letrozole induced PCOS mouse model; assay type: in vivo, C57BL/6 mice; conditions: 300 ng/kg i.p. 3 times per week for 6 weeks
Protocol: 2.5-week-old female C57BL/6 mice (Charles River, MA, USA) are housed in a vivarium for 1 week under specific pathogen-free conditions. The animal experiment protocol for this study is approved, and all animal experiments are performed in compliance with policies and guidelines for use of laboratory animals. At 3.5 weeks of age, mice (n=11/group) are subcutaneously implanted with a placebo or 5 mg letrozole (LTZ) pellet (Innovative Research of America, Sarasota, FL, USA), which provides a constant release of LTZ (50 μg/day). Body weight is monitored weekly before and post-implantation. Body weight and insulin resistance (measured by glucose tolerance test, GTT) are used to monitor development of PCOS characteristics. Five weeks after placebo or LTZ pellet implantation, mice undergo intraperitoneal injection of doxercalciferol (300 ng/kg) or saline 3 times per week for 6 weeks. Six weeks after doxercalciferol treatment, the mice are anesthetized and ovary, uterus, gonadal white fat, kidney, and liver tissue are collected. Each of these tissues are fixed in 4% paraformaldehyde for further histological analysis.

[8] = PCOS mice, 300 ng/kg i.p. 3 times per week for 6 weeks

## C=C1/C(=C\C=C2/CCC[C@]3(C)[C@@H]([C@H](C)/C=C/[C@H](C)C(C)C)CC[C@@H]23)C[C@@H](O)C[C@@H]1O [doxercalciferol]
[1]
  serum levels vs reference range of C57BL/6 mice: overlap with the reference range
[2]
  blood glucose levels, vs control mice: elevated levels compared to control mice
  blood glucose levels, vs untreated PCOS mice: significantly lower blood glucose levels
[3]
  ADRA1B fold change (FC): −1.81
  ARGI fold change (FC): −1.42
  DUSP1 fold change [FC]: 1.05
  IL24 fold change (FC): 1.55
[3]; RNA sequencing
  number of DEGs: 410
  number of down-regulated DEGs: 252
  number of up-regulated DEGs: 158
SW872 cells [4]
  cell morphology: most cells being dead
SW872 cells [4]; vs control
  cell number: significant reduction in cells
[5]; [8]
  average number of live pups, vs control mice: no significant difference
  average number of live pups, vs untreated PCOS: increased the average number of live pups
  required time for pregnancy after introduction to a potential mate: about 2 weeks
[5]; PCOS mice, 300 ng/kg i.p. 3 times per week for 6 weeks (PCOS 20%, control 83.3%)
  pregnancy rate: 50%
[5]; PCOS mice, 300 ng/kg i.p. 3 times per week for 6 weeks, not to the levels of control mice
  total number of live pups, vs untreated PCOS: increases the total number of live pups
[5]; pups of treated PCOS mice, 5 days postpartum
  average weight of pups, vs control mice: significantly lower
[5]; pups of treated PCOS mice, 10 days postpartum
  average weight of pups, vs control and PCOS: no significant difference
[5]; pups of treated PCOS mice, at birth
  average weight of pups, vs control mice: significantly lower
[5]; pups of treated PCOS mice, at birth, 5 days and 10 days postpartum
  growth of pups, vs control and PCOS: no significant difference
SW872 cells [6]
  CCL5 cytokine production: significantly downregulates
  CCL18 cytokine production: significantly downregulates
  CXCL10 cytokine production: significantly downregulates
  MIF cytokine production: significantly downregulates
  TIMP-2 cytokine production: significantly downregulates
  TNF RII cytokine production: significantly downregulates
  TNF alpha cytokine production: significantly downregulates
[7]
  mouse body weight after treatment, vs control mice: no significant weight difference
  mouse body weight after treatment, vs untreated PCOS mice: PCOS mice weigh significantly more than both control and doxercalciferol treated PCOS mice
[7]; PCOS mice
  mouse body weight during treatment: lowers PCOS mouse weight
